In one data set the target is EGFR WT (Homo sapiens (Human), UniProt P00533). Kind of data set: ErbB enzyme assay (CisBio HTRF-KinEASE-TK), EGFR WT. In kind it is biochemical. The following applies: ATP at Km (25 μM), 1 h incubation. Put shortly:
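Three-fold DMSO serial dilutions were added to kinase reactions and incubated 1 h at room temperature. Quench used 62.5 nM Sa-XL665 plus 0.25×TK-Ab-Cryptate in detection buffer, followed by another 1 h. Substrate phosphorylation was then measured by dual-wavelength HTRF.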
In general terms: Time-resolved FRET reads energy transfer from a long-lived donor to a nearby acceptor.

Data set [1] is described as follows: Blood brain barrier penetration assay in CD-1 mice (short oral absorption model, Kpuu brain). In kind it is in vivo. The following applies: mouse, brain and plasma, male CD-1 mice, 1 h post-dose, Kpuu brain = conc (brain)/conc (plasma) x (fu brain/fu plasma). The protocol:
In vitro plasma and brain binding assays were carried out using the equilibrium dialysis method. EDTA-anticoagulated plasma and diluted brain homogenate (1:3 with DPBS pH 7.4) were spiked with 2 μM test compound and dialyzed against an equal volume of 100 μL 100 mM sodium phosphate buffer (pH 7.4) at 37° C. for 4 h in a slowly rotated plate. At the end of the dialysis 50 μL aliquots from the buffer side and matrix side of the dialysis device were taken into new 96-well plates. An equal volume of opposite blank matrix (buffer or matrix) in each sample was added to reach a final volume of 100 μL. All samples were processed by protein precipitation for LC/MS/MS analysis. Unbound fraction (fu) of test compound was calculated by the ratio of buffer side response to the brain homogenate/plasma side response, and unbound fraction (fu,pl and fu,br) of test compound in non-diluted plasma and brain tissue were calculated from measured fu in homogenate and plasma with the following equation: fu,pl or fu,br=1/D/((1/(F/T)-1)+1/D). F is the free compound concentration as determined by the calculated concentration on the buffer side of the membrane and T is the total compound concentration as determined by the calculated concentration on the matrix side of the membrane. D is the dilution factor (D equals 1 for plasma, and 4 for brain).
A short oral absorption model is an in-vivo screening model to identify brain penetration of a compound. Three male CD-1 mice were orally dosed with an appropriate vehicle. At the 1 h timepoint post-dose, blood samples were collected via cardiac puncture, placed into EDTA anti-coagulated tubes, and spiked with 1% 1 mM quinidine (aq). The samples were placed on wet ice until centrifugation at 4000×g for 10 min. Brain tissue was rinsed with saline and the liquid was drained. The brains were weighed and transferred to tubes for homogenization. Each tube contained 1 g tissue, 9 mL buffer (1:2 v/v MeOH:15 mM PBS), and a spike of 1% 1 mM quinidine (aq). All samples were stored at −80° C. prior to LC/MS/MS analysis. Standards were prepared by spiking blank plasma and brain homogenate. Aliquots (10 μL) of sample, calibration standard, quality control, dilution quality control, single blank, and double blank were added to the 96-well plate respectively. Homogenized brain tissue along with plasma samples were precipitated by adding 190 μL cold MeCN containing internal standard (the double blank sample was quenched with 190 L MeCN). The mixture was vortex-mixed for 5 min at 1000 rpm and centrifuged for 10 min at 3220×g, 4° C. […] The free fraction of test compound in biological matrix was determined by using in vitro plasma and brain tissue free fraction. Kpuu brain was calculated by the equation: Kpuu brain=cone (brain)/conc (plasma)×(fu brain/fu plasma).

Another data set addresses ErbB2 V777L (Homo sapiens (Human), UniProt P04626, V777L). Kind of data set: ErbB enzyme assay (CisBio HTRF-KinEASE-TK), ErbB2 V777L. In kind it is biochemical. Put shortly:
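HTRF KinEASE-TK tyrosine-kinase read-out of substrate phosphorylation after a final 1 h at ambient temperature, from the 655/620 nm emission ratio.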

A further data set deals with ErbB2 mutant L755S (Homo sapiens (Human), UniProt P04626, L755S). Kind of data set: ErbB cellular phosphorylation assay (phospho-ErbB2 ELISA), HEK-293 cells expressing ErbB2 L755S. The settings on record: 1 h treatment. Format: cell-based. As for the experimental part: Cells were seeded in poly-D-lysine coated, 96-well plates at a density of 50,000 cells/well in complete medium (DMEM supplemented with 10% fetal bovine serum and G418) and incubated for 24 h at 37° C., 5% CO2 prior to treatment. Cells were treated with compound using three-fold dilutions at final concentrations ranging from […] for 1 h at 37° C., 5% CO2. EGFR-WT cells were stimulated with 500 ng/mL recombinant human EGF (R&D Systems, 236-EG) for an additional 5 min. After compound incubation, medium was removed from the plate, and cells were lysed in buffer containing protease and phosphatase inhibitors ([…]). Cell lysates were analyzed by enzyme-linked immunosorbent assay (ELISA). The ELISAs were performed to measure phosphorylated ErbB2 or phosphorylated EGFR levels, respectively (R&D Systems, DYC-1768, Human Phospho-ErbB2 DuoSet ELISA; DYC1095, Human Phospho-EGFR DuoSet IC ELISA) according to the manufacturer's instructions. Absorbance was measured at 450 nm using a BioTek Cytation 5 plate reader (Agilent, Santa Clara, CA) and IC50 values were calculated using a 4-parameter fit.
Chain of ErbB2 mutant L755S (P04626 23-1255 L755S): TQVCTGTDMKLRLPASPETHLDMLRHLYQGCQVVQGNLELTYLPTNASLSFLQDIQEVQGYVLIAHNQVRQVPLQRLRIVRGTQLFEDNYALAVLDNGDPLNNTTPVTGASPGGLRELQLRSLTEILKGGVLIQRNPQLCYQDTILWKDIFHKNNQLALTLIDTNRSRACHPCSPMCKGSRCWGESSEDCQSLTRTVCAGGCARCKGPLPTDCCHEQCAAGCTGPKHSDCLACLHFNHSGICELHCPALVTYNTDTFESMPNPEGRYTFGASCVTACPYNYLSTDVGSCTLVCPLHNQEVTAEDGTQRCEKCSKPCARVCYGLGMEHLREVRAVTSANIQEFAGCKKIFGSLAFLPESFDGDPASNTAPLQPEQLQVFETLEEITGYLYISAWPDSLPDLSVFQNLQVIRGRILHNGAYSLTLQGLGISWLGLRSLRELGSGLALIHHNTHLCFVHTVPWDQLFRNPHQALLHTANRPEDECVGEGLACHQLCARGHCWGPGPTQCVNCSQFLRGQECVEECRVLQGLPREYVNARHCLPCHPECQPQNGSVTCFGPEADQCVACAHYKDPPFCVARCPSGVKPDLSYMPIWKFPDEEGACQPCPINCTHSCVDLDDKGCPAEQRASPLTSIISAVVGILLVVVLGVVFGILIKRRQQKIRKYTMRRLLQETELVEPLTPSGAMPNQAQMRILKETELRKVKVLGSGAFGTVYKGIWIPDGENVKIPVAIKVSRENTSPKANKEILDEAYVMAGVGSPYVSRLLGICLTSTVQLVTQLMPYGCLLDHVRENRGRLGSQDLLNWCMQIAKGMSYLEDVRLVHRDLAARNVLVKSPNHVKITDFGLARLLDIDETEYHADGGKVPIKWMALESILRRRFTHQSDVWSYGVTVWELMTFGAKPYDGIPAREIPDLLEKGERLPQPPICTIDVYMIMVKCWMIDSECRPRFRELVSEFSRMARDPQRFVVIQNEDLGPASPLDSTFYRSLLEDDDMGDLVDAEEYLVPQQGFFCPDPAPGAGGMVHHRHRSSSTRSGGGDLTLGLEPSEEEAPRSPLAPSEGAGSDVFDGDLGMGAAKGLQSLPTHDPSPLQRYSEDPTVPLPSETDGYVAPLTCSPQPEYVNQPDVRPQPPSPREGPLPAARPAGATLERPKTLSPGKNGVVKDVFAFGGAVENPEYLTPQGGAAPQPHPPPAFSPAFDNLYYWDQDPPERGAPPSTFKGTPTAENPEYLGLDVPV
(In general: An ELISA detects its analyte on a solid surface through an enzyme-linked reagent.)

The next data set addresses EGFR wild type (Homo sapiens (Human), UniProt P00533). Kind of data set: ErbB cellular phosphorylation assay (phospho-EGFR ELISA), HEK-293 cells expressing EGFR wild type, EGF stimulated. In kind it is cell-based. The settings on record: 1 h treatment. As for the experimental part: HEK-293 cells were engineered to constitutively express ErbB2 mutant L755S or EGFR wild type (constructs obtained from GenScript, Piscataway, NJ). Cells were seeded in poly-D-lysine coated, 96-well plates at a density of 50,000 cells/well in complete medium (DMEM supplemented with 10% fetal bovine serum and G418) and incubated for 24 h at 37° C., 5% CO2 prior to treatment. Cells were treated with compound using three-fold dilutions at final concentrations ranging from […] for 1 h at 37° C., 5% CO2. EGFR-WT cells were stimulated with 500 ng/mL recombinant human EGF (R&D Systems, 236-EG) for an additional 5 min. After compound incubation, medium was removed from the plate, and cells were lysed in buffer containing protease and phosphatase inhibitors ([…]). Cell lysates were analyzed by enzyme-linked immunosorbent assay (ELISA). The ELISAs were performed to measure phosphorylated ErbB2 or phosphorylated EGFR levels, respectively (R&D Systems, DYC-1768, Human Phospho-ErbB2 DuoSet ELISA; DYC1095, Human Phospho-EGFR DuoSet IC ELISA) according to the manufacturer's instructions. Absorbance was measured at 450 nm using a BioTek Cytation 5 plate reader (Agilent, Santa Clara, CA) and IC50 values were calculated using a 4-parameter fit.

Chain of ErbB2 V777L (P04626 23-1255 V777L): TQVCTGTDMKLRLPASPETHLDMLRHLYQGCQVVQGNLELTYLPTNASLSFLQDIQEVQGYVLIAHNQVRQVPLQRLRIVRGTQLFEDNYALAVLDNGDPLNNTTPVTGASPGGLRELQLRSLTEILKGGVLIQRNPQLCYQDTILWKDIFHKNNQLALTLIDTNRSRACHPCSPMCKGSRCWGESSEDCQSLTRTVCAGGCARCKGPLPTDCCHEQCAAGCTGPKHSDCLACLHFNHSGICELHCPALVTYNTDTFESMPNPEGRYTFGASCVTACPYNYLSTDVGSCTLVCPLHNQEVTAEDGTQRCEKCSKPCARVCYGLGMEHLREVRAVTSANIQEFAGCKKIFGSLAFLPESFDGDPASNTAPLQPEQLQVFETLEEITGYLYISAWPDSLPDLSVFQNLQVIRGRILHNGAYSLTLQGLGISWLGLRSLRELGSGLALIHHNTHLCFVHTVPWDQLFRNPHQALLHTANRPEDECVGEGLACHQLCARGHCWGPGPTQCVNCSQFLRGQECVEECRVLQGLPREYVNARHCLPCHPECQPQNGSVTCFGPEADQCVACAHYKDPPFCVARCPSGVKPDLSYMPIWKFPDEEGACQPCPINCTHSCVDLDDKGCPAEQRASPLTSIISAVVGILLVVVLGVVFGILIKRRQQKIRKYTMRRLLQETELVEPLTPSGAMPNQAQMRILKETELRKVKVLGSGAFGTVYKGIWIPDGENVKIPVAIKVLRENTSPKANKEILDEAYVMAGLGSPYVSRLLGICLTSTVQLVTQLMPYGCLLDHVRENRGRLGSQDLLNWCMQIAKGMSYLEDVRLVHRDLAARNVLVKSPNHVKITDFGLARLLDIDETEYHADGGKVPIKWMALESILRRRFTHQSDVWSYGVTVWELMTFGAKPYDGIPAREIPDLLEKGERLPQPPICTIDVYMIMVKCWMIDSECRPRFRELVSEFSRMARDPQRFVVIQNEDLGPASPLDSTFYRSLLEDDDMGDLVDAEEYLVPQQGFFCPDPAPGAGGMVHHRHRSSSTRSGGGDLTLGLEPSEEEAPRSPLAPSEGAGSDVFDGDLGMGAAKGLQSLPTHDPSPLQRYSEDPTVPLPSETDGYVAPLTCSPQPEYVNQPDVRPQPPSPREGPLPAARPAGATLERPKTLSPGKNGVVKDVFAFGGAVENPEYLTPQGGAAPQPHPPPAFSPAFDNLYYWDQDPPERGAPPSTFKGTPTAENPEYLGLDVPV
Chain of EGFR wild type (P00533 25-1210): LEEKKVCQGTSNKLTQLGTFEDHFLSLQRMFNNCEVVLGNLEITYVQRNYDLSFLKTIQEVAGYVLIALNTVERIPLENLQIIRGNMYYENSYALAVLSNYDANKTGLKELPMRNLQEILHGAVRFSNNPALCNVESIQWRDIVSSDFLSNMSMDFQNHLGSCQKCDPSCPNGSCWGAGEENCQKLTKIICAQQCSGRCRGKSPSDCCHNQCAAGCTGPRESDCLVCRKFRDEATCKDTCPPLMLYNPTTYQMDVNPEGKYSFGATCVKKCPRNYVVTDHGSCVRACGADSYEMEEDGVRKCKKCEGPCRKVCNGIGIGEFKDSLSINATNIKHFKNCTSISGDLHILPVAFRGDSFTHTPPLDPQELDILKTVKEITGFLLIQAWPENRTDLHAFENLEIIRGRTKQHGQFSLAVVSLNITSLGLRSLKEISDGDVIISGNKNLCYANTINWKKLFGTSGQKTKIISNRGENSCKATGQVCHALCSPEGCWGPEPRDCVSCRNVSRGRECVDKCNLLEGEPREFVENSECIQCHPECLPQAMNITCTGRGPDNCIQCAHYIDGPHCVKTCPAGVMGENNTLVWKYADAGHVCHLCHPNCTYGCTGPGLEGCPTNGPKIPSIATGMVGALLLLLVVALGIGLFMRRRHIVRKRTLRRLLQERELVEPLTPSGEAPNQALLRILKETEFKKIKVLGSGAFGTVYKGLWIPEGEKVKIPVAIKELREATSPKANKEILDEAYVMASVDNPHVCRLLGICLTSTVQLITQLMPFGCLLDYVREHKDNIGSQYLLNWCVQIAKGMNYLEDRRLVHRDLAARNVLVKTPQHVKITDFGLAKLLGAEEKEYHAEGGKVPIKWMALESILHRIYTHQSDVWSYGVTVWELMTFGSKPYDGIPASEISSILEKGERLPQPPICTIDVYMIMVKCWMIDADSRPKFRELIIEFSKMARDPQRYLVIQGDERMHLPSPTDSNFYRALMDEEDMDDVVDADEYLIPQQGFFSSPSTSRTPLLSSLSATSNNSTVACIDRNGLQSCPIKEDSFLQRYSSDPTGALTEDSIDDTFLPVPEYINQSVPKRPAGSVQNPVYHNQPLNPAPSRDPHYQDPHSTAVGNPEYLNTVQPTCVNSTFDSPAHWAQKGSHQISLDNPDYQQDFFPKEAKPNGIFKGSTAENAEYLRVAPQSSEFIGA
Chain of EGFR WT (P00533 25-1210): as above

As for `C=CC(=O)N1CCN(c2ncc3ncnc(Nc4ccc(Oc5cnc6c(c5)ncn6C)c(C)c4)c3n2)CC1` [Compound 235, 1-(4-(8-((3-methyl-4-((3-methyl-3H-imidazo[4,5-b]pyridin-6-yl)oxy)phenyl)amino)pyrimido[5,4-d]pyrimidin-2-yl)piperazin-1-yl)prop-2-en-1-one], at EGFR WT, the IC50 – broadly, the concentration that inhibits the measured activity by half – was in the range of 100 to 500 nM. Besides, in data set [1], the Kp uu at 1 h came to 0.04.

`C=CC(=O)N1CCN(c2ncc3ncnc(Nc4ccc(Oc5cc(F)c6c(c5)nnn6C)c(C)c4F)c3n2)CC1` [Compound 33, 1-(4-(8-((2-fluoro-4-((7-fluoro-1-methyl-1H-benzo[d][1,2,3]triazol-5-yl)oxy)-3-methylphenyl)amino)pyrimido [5,4-d]pyrimidin-2-yl)piperazin-1-yl)prop-2-en-1-one]: the 50% inhibitory concentration (IC50) on ErbB2 V777L was 50 to 100 nM; against EGFR WT it was under 50 nM; at ErbB2 mutant L755S it was under 100 nM; against EGFR wild type, at least 5000 nM.

Consider `C=CC(=O)N1CCN(c2ncc3ncnc(Nc4ccc(Oc5ccc6c(c5)nnn6C)c(C)c4)c3n2)CC1` [Compound 5, 1-(4-(8-((3-methyl-4-((1-methyl-1H-benzo[d][1,2,3]triazol-5-yl)oxy)phenyl)amino)pyrimido[5,4-d]pyrimidin-2-yl)piperazin-1-yl)prop-2-en-1-one], for which, at EGFR WT, the IC50 lay within 100 to 500 nM. Moreover, the Kp uu at 1 h in data set [1] was 0.22.

Take `C=CC(=O)N1CCC(Sc2ncc3ncnc(Nc4ccc(Oc5ccc6c(c5)ncn6C)c(C)c4F)c3n2)CC1` [Compound 107, 1-(4-((8-((2-fluoro-3-methyl-4-((1-methyl-1H-benzo[d]imidazol-5-yl)oxy)phenyl)amino)pyrimido[5,4-d]pyrimidin-2-yl)thio)piperidin-1-yl)prop-2-en-1-one]: the figures for the IC50 on ErbB2 V777L, on ErbB2 mutant L755S and at EGFR wild type were 50 to 100 nM, 100 to 500 nM and at least 5000 nM, respectively.

Regarding `CC#CC(=O)N1CCN(c2ncc3ncnc(Nc4ccc(Oc5ccc6c(c5)nnn6C)c(C)c4)c3n2)CC1` [Compound 55, 1-(4-(8-((3-methyl-4-((1-methyl-1H-benzo[d][1,2,3]triazol-5-yl)oxy)phenyl)amino)pyrimido [5,4-d]pyrimidin-2-yl)piperazin-1-yl) but-2-yn-1-one], the IC50 is 100 to 500 nM against ErbB2 V777L, 500 to 1000 nM at EGFR WT, 100 to 500 nM at ErbB2 mutant L755S and at least 5000 nM at EGFR wild type.

`C=CC(=O)N1C2CC1CN(c1ccc3ncnc(Nc4ccc(Oc5ccc6c(c5)nnn6C)c(C)c4)c3n1)C2` [Compound 93, 1-(3-(4-((3-methyl-4-((1-methyl-1H-benzo[d][1,2,3]triazol-5-yl)oxy)phenyl)amino)pyrido[3,2-d]pyrimidin-6-yl)-3,6-diazabicyclo[3.1.1]heptan-6-yl)prop-2-en-1-one]: the half-inhibitory concentration (IC50) at ErbB2 V777L is 50 to 100 nM; on EGFR WT, 100 to 500 nM; on ErbB2 mutant L755S, under 100 nM; against EGFR wild type, at least 5000 nM.

Consider `C=CC(=O)N1CCN(c2ncc3ncnc(Nc4ccc(Oc5ccn6ncnc6c5)c(C)c4F)c3c2F)CC1` [Compound 101, 1-(4-(4-((4-([1,2,4]triazolo[1,5-a]pyridin-7-yloxy)-2-fluoro-3-methylphenyl)amino)-5-fluoropyrido[3,4-d]pyrimidin-6-yl)piperazin-1-yl)prop-2-en-1-one], for which the 50% inhibitory concentration (IC50) on ErbB2 V777L was 100 to 500 nM; at EGFR WT, 100 to 500 nM; on ErbB2 mutant L755S it was 100 to 500 nM; against EGFR wild type, at least 5000 nM.

As to `C=CC(=O)N1CCN(c2ncc3ncnc(Nc4ccc(Oc5ccc6c(c5)nnn6C)c(C)c4)c3c2OC)CC1` [Compound 105], the IC50 against ErbB2 V777L is 100 to 500 nM; on EGFR WT it was 500 to 1000 nM; on ErbB2 mutant L755S, 100 to 500 nM; at EGFR wild type, at least 5000 nM.

For the compound `C=CC(=O)N1CCN(c2ncc3ncnc(Nc4ccc(Oc5cc(F)c6c(c5)nnn6C)c(C)c4F)c3n2)C[C@H]1C` [Compound 49, (R)-1-(4-(8-((2-fluoro-4-((7-fluoro-1-methyl-1H-benzo[d][1,2,3]triazol-5-yl)oxy)-3-methylphenyl)amino)pyrimido[5,4-d]pyrimidin-2-yl)-2-methylpiperazin-1-yl)prop-2-en-1-one], the IC50 at ErbB2 V777L was 100 to 500 nM; against EGFR WT, under 50 nM; against ErbB2 mutant L755S it was 100 to 500 nM; at EGFR wild type, at least 5000 nM.

For `C=CC(=O)N1CCN(c2ncc3ncnc(Nc4cc(C)c(Oc5ccc6c(c5)ncn6C(F)F)cc4OC)c3n2)C[C@H]1C` [Compound 39, (R)-1-(4-(8-((4-((1-(difluoromethyl)-1H-benzo[d]imidazol-5-yl)oxy)-2-methoxy-5-methylphenyl)amino)pyrimido[5,4-d]pyrimidin-2-y1)-2-methylpiperazin-1-yl)prop-2-en-1-one], the 50% inhibitory concentration (IC50) against ErbB2 V777L is 100 to 500 nM; against EGFR WT, 500 to 1000 nM; on ErbB2 mutant L755S, 100 to 500 nM; against EGFR wild type, at least 5000 nM.

For the compound `C=CC(=O)N1CCC2(C1)CN(c1ncc3ncnc(Nc4ccc(Oc5ccc6c(c5)nnn6C)c(C)c4)c3n1)C2` [Compound 15, 1-(2-(8-((3-methyl-4-((1-methyl-1H-benzo[d][1,2,3]triazol-5-yl)oxy)phenyl)amino)pyrimido[5,4-d]pyrimidin-2-yl)-2,6-diazaspiro[3.4]octan-6-yl)prop-2-en-1-one], the half-maximal inhibitory concentration (IC50) at ErbB2 V777L was 500 to 1000 nM; on EGFR WT, at least 1000 nM; on ErbB2 mutant L755S it was 500 to 1000 nM; against EGFR wild type, at least 5000 nM.

Take `C=CC(=O)N1CCN(c2ncc3ncnc(Nc4ccc(Oc5ccc6c(c5)nnn6C)c(C)c4)c3n2)CC1(C)C` [Compound 3, 1-(2,2-dimethyl-4-(8-((3-methyl-4-((1-methyl-1H-benzo[d][1,2,3]triazol-5-yl)oxy)phenyl)amino)pyrimido[5,4-d]pyrimidin-2-yl)piperazin-1-yl)prop-2-en-1-one]: the IC50 on ErbB2 V777L is 50 to 100 nM; against EGFR WT, 100 to 500 nM; on ErbB2 mutant L755S it was 100 to 500 nM; on EGFR wild type, at least 5000 nM.

`C=CC(=O)N1CCN(c2ncc3ncnc(Nc4ccc(Oc5ccc6c(c5)ncn6C)c(C)c4)c3n2)CC1` [Analog of compound 5, reference compound] gave a Kp uu at 1 h in data set [1] of 0.04.
